# According to ChEMBL document CHEMBL1201862, “PubChem BioAssay data set” (2004):
# The source made the active and inactive calls.
# Columns and labels:
# [1] = molecular target: T1, Calpain-2 catalytic subunit (Sus scrofa, UniProt P43367); assay: m-calpain protease blockers, concentration series – biochemical, fluorogenic peptide substrate, dose response (AID 1420); format: functional
# T1 sequence (P43367 whole entry): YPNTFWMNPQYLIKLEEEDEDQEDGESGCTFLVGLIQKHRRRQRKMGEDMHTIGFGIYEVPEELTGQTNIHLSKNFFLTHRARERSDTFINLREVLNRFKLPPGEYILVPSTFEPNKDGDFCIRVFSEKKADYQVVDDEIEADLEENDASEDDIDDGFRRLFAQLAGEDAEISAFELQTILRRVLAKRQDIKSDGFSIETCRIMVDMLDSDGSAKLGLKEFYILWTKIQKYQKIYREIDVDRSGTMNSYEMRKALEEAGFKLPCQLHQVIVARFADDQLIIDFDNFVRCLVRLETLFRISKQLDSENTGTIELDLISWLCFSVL
# [2] = molecular target: Dual specificity tyrosine-phosphorylation-regulated kinase 1A (Rattus norvegicus, UniProt Q63470); format: biochemical, Homo sapiens
# [3] = molecular target: FAD-linked sulfhydryl oxidase ALR (Homo sapiens, UniProt P55789); assay: ALR-catalysed DTT oxidation blockers – biochemical, H2O2 detection, luminescence, cherry-pick, dose response (AID 493248)
# Chain of FAD-linked sulfhydryl oxidase ALR (P55789 whole entry): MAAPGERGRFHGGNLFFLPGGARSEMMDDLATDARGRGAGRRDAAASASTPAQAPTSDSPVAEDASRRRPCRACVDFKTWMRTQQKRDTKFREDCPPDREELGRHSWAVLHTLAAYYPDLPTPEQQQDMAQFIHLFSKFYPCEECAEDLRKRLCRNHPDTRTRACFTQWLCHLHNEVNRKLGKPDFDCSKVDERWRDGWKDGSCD
# [4] = molecular target: Peroxisome proliferator-activated receptor gamma/Nuclear receptor coactivator 3 (Homo sapiens, UniProt P37231); assay: (§1) TR-FRET dose response biochemical High Throughput Screening assay for agonists of the steroid receptor coactivator 3 (SRC-3) recruitment by the peroxisome proliferator-activated receptor gamma (PPAR gamma): non-selective agonists. [Related pubchem assays: 1301 (Confirmation screen.), 1048 (Primary screen.)]; format: functional
# Chain of Peroxisome proliferator-activated receptor gamma/Nuclear receptor coactivator 3 (P37231 whole entry): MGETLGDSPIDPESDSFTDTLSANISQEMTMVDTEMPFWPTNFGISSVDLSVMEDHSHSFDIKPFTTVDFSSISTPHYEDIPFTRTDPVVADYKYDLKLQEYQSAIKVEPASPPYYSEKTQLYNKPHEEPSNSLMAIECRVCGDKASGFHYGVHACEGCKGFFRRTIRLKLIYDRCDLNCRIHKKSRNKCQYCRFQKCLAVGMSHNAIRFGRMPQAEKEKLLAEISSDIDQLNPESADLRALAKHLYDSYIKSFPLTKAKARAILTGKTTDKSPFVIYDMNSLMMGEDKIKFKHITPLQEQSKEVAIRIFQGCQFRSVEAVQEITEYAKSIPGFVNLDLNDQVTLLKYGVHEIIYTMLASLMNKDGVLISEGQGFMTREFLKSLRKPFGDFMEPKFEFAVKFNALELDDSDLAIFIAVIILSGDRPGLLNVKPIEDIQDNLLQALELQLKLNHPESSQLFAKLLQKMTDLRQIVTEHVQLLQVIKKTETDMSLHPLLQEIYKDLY
# Chain of Peroxisome proliferator-activated receptor gamma/Nuclear receptor coactivator 3 (Q9Y6Q9 whole entry, further chain): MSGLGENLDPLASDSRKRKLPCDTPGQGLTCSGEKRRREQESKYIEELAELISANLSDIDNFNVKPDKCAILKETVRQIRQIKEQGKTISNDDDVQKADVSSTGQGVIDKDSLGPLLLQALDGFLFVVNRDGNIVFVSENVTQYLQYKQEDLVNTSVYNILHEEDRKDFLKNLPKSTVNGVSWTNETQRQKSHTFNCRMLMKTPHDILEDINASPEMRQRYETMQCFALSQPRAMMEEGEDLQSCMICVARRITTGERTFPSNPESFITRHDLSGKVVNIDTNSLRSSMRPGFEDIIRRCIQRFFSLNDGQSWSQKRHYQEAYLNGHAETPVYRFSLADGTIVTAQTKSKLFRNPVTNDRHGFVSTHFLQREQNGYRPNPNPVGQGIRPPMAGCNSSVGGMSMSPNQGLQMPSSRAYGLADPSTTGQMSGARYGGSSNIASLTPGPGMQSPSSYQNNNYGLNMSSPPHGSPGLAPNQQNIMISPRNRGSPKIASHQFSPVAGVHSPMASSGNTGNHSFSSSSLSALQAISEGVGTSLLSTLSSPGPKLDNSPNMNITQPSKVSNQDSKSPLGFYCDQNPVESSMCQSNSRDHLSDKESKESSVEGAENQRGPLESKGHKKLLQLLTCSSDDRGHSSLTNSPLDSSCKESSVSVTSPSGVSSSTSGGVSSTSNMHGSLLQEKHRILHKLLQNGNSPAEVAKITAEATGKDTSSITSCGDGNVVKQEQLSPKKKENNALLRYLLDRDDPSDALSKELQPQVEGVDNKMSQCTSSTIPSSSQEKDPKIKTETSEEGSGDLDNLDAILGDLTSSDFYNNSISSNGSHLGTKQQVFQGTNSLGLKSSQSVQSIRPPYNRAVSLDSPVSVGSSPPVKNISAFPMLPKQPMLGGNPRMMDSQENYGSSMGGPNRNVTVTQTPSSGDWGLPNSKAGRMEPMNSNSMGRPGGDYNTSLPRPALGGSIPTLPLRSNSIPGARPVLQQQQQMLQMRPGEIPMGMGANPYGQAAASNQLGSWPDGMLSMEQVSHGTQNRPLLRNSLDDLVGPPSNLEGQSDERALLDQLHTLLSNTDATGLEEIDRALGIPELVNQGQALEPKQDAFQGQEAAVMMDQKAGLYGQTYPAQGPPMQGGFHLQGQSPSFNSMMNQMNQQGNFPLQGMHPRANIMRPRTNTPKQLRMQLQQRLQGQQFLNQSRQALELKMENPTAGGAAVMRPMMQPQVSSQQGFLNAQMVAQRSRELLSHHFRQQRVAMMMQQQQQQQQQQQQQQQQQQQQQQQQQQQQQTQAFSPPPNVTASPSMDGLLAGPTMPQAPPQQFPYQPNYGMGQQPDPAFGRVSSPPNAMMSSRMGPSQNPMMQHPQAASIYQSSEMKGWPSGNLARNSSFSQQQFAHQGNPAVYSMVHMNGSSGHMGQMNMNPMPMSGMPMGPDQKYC
# [5] = molecular target: Peroxisome proliferator-activated receptor gamma/Nuclear receptor coactivator 1 (Homo sapiens, UniProt P37231); assay: as §1, with “1 (SRC-1)” for “3 (SRC-3)”, “assays (depositor defined):AID1300, AID1808, AID504735, AID631]” for “assays: 1301 (Confirmation screen.), 1048 (Primary screen.)]”; format: protein assay
# [6] = molecular target: Peroxisome proliferator-activated receptor gamma/Nuclear receptor coactivator 2 (Homo sapiens, UniProt P37231); assay: TR-FRET dose response biochemical High Throughput Screening assay for agonists of the steroid receptor coactivator 2 (SRC-2) recruitment by the peroxisome proliferator-activated receptor gamma (PPAR gamma): non-selective agonists. [Related pubchem assays: 1297, 1032 ]; format: functional
# [7] = molecular target: ATP-dependent molecular chaperone HSP82 (Candida albicans (strain WO-1) (Yeast), UniProt C4YTQ8); assay: steroid-induced GRE reporter decrease in yeast – S. cerevisiae, luminescence, Hsp90 inhibitor project, dose response (AID 2400); format: functional, cell-based;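 also: beta-galactosidase luminescence from glucocorticoid response element reporter as proxy for Hsp90 function; inhibitor potency where signal loss means Hsp90 inhibition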
# Chain of ATP-dependent molecular chaperone HSP82 (C4YTQ8 whole entry): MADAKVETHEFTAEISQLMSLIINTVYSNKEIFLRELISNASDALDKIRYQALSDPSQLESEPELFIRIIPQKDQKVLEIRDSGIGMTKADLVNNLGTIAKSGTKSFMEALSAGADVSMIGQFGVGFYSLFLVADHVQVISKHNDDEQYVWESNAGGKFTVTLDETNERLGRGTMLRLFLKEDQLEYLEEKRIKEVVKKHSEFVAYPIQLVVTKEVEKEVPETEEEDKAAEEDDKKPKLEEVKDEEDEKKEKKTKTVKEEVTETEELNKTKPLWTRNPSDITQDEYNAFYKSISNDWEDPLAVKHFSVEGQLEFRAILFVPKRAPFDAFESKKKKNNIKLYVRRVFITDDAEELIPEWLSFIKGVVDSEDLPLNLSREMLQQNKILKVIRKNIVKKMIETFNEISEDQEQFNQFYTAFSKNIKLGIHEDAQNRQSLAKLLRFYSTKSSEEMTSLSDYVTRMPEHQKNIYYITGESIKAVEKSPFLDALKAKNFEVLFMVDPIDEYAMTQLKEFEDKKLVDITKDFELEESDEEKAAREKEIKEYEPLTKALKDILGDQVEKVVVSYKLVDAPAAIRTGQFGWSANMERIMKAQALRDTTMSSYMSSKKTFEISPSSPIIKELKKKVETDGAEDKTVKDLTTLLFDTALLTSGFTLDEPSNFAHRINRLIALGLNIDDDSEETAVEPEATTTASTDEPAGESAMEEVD
# [8] = fluconazole-exposed Candida albicans growth modulators – fluorescence, retest, confirmation (AID 2467); format: functional, cell-based
# [9] = NIH-3T3 fibroblast cytotoxicity, dose response, cytotoxicity control, cell-based, fluorescence, Alamar Blue, secondary assay (AID 2327); format: functional;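 also: NIH-3T3 mouse fibroblasts cultured with fluconazole at 8 µg/mL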
# [10] = molecular target: T2, Serine/threonine-protein phosphatase (Candida dubliniensis (strain CD36 / CBS 7987 / NCPF 3949 / NRRLY-17841) (Yeast), UniProt B9W6M3); assay: blockers of CaCl2-induced CDRE-lacZ signaling – S. cerevisiae, luminescence, secondary, dose response (AID 2388); format: functional, cell-based;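 also: yeast reporter cells carrying a calcineurin-responsive lacZ construct stimulated with calcium chloride; luminescent beta-galactosidase reporter signal in whole cells rather than isolated phosphatase activity; potency for inhibition where a drop in reporter signal means calcineurin blockade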
# T2 sequence (B9W6M3 whole entry): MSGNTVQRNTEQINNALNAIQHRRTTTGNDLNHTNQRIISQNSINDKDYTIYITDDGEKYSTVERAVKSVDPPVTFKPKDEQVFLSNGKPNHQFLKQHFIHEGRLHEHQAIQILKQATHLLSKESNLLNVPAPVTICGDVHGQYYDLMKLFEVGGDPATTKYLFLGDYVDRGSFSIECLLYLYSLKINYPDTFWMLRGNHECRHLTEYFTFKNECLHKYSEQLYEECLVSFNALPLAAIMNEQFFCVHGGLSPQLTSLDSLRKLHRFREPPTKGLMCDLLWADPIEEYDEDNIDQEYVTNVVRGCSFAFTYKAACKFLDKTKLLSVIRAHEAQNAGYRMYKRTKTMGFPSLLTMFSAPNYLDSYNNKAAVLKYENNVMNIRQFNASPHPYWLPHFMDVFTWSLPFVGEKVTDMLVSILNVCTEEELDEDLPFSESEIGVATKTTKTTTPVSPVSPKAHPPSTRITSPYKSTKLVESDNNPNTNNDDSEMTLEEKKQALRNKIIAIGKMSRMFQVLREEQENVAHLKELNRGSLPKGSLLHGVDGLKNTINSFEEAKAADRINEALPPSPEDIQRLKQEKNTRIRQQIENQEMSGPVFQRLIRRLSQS
# HEK293 = assay: EBV LMP1 TES2 canonical NF-kB signalling blockers – cell-based, HEK293, luciferase, cherry-pick, dose response (AID 588343); format: functional; conditions: Homo sapiens
# Cytochrome P450 2D6 = Cytochrome P450 2D6 (Homo sapiens, UniProt P10635);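 also: CYP2D6 member of a cytochrome P450 panel assay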
# Chain of Cytochrome P450 2D6 (P10635 whole entry): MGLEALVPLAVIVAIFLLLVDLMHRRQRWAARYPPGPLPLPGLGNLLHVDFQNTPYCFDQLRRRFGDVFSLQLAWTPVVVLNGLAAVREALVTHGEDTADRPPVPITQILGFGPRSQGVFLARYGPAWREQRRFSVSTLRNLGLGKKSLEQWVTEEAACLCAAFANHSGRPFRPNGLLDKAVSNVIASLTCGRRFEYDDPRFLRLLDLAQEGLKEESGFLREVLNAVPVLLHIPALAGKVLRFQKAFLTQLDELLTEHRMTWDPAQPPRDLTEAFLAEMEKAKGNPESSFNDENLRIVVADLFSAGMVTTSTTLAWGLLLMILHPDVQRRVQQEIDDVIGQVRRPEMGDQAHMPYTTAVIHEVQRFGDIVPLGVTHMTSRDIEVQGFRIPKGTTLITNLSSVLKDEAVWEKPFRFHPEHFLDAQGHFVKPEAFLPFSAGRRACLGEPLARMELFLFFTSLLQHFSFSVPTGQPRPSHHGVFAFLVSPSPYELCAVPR
# Cytochrome P450 2C9 = Cytochrome P450 2C9 (Homo sapiens, UniProt P11712)
# Chain of Cytochrome P450 2C9 (P11712 whole entry): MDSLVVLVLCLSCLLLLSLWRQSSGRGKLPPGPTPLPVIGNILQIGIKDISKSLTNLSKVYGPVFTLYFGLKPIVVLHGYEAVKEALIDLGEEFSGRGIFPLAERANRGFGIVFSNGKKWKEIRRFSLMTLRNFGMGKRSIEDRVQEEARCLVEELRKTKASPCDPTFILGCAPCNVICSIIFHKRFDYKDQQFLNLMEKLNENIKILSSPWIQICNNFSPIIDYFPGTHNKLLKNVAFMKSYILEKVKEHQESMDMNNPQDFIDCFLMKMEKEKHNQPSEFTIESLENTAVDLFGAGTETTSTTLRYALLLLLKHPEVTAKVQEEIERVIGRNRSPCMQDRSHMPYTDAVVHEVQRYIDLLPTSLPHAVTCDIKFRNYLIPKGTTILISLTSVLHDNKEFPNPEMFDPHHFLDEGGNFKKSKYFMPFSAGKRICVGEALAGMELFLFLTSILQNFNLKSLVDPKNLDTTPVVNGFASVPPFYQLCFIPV
# [11] = molecular target: T3, COUP transcription factor 2 (Homo sapiens, UniProt P24468); assay: Luminescence-based cell-based high throughput dose response assay to identify inhibitors of COUP-TFII (NR2F2).; format: functional;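 also: HEK293 cells transiently cotransfected with COUP-TFII expression vector and reporter; luciferase reporter luminescence driven by COUP-TFII from the pX2-168 reporter plasmid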
# T3 sequence (P24468 whole entry): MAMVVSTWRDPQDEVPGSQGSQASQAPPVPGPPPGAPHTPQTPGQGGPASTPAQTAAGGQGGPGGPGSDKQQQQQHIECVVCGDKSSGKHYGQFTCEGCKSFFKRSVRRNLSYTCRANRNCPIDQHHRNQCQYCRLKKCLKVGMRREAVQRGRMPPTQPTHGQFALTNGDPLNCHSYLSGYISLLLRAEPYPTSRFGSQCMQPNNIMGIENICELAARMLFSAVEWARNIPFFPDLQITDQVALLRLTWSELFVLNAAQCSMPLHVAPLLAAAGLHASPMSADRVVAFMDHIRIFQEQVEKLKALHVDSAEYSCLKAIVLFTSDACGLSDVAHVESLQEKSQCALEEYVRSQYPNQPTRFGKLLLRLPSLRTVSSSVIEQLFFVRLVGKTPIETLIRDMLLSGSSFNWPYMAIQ
# [12] = NIH3T3 cell viability loss – ATP luminescence, mouse fibroblasts, counter-screen, dose response (AID 2010); format: functional, cell-based;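 also: cells exposed to compound for about 90 hours before reading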
# Protein Wnt-3a = Protein Wnt-3a (Mus musculus, UniProt P27467); assay: antagonism of Wnt3a pathway luciferase reporter – Wnt-LIGHT cells, luminescence, selectivity assay for Gli-SUFU antagonist project, dose response (AID 651570); format: functional; conditions: read-out: IC50_Mean;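 also: Wnt-LIGHT reporter cells stimulated with conditioned medium from Wnt3a-producing cells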
# Chain of Protein Wnt-3a (P27467 whole entry): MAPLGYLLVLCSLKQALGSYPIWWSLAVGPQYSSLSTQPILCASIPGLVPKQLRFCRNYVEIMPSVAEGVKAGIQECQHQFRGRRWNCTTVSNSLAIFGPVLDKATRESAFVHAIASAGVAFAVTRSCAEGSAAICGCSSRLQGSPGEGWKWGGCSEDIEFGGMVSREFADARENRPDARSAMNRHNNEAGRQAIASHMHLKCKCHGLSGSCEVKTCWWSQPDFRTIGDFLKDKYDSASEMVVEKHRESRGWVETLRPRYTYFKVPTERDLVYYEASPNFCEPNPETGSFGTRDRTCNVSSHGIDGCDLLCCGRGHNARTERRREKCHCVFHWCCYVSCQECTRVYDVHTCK
# INS1 = assay: INS-1E survival protection against cytokine death – cell-based, luminescence, retest, dose response (AID 449756); format: functional; conditions: Rattus norvegicus;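 also: cell death triggered by IL-1 beta plus TNF-alpha plus IFN-gamma mixture; protective hits raise ATP signal compared with cytokine alone wells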
# [13] = Trypanosoma cruzi growth suppression in host cells – NIH3T3 host cells, beta-gal luminescence, confirmation (AID 2044); format: functional, cell-based;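 also: intracellular parasites grown in NIH/3T3 mouse fibroblasts as host cells; luminescent beta-galactosidase reporter signal from transgenic T. cruzi replicating inside host cells; inhibitors lower the luminescence signal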
# Paired box protein Pax-8 = Paired box protein Pax-8 (Homo sapiens, UniProt Q06710); assay: PAX8 transcriptional activity inhibition in RMG-I – RMG-I cells, luciferase, cherry-pick, dose response (AID 687027); format: functional, cell-based;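 also: luciferase reporter driven by Pax8 target thyroperoxidase promoter measured by SteadyGlo luminescence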
# Cytochrome P450 3A4 = Cytochrome P450 3A4 (Homo sapiens, UniProt P08684); conditions: Potency;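 also: confirmatory qHTS run detecting inhibitors and substrates of CYP3A4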
# Chain of Cytochrome P450 3A4 (P08684 whole entry): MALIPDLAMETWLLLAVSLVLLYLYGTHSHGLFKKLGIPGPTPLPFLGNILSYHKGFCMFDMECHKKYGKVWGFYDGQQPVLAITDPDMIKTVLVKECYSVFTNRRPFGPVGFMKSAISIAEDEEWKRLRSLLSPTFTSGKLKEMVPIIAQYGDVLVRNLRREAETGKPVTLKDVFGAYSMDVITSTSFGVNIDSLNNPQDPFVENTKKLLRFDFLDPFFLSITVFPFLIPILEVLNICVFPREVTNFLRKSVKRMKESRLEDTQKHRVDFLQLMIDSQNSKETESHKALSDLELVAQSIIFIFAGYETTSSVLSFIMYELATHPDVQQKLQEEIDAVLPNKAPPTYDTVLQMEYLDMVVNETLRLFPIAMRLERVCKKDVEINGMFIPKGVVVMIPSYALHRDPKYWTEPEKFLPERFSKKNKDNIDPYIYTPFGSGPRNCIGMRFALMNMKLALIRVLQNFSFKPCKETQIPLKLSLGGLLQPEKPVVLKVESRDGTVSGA
# [14] = viability loss in HepG2 hepatoma cells – cell-based, ATP luminescence, cherry-pick, activator set 2, cytotoxicity control, dose response (AID 1053143); format: functional
# [15] = molecular target: T4, Microphthalmia-associated transcription factor (Homo sapiens, UniProt O75030); assay: reducers of TRPM1 reporter luminescence, concentration series – cell-based, SK-MEL-5, cherry-picked, set 3, MITF inhibitor project, dose response (AID 493073); format: functional;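 also: SK-MEL-5 melanoma cells with luciferase driven by the MITF target TRPM1 promoter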
# T4 sequence (O75030 whole entry): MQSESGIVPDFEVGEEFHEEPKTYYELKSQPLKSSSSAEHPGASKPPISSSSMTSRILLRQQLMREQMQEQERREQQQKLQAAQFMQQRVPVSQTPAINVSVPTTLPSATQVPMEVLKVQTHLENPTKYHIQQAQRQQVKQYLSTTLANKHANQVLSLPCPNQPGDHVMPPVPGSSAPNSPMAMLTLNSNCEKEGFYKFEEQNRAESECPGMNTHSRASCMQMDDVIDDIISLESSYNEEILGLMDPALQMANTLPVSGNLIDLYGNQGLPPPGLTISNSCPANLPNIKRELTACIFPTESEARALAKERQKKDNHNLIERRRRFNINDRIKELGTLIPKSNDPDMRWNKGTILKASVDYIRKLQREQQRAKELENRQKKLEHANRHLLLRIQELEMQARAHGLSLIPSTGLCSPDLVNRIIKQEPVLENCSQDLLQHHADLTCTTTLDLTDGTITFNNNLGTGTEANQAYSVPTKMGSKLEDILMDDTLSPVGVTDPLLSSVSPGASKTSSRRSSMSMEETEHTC
# Vero = assay: cells; format: functional; conditions: Chlorocebus sabaeus
# Troponin, cardiac muscle = Troponin, cardiac muscle (Homo sapiens, UniProt P19429+P45379+P63316); assay: Fluorescence-based biochemical high throughput dose response assay for activators of the calcium sensitivity of cardiac Regulated Thin Filaments (RTF). [Related pubchem assays (depositor defined):AID493008, AID493018, AID504382, AID504383]; format: protein-complex assay
# Cytochrome P450 1A2 = molecular target: T5, Cytochrome P450 1A2 (Homo sapiens, UniProt P05177);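 also: PubChem cytochrome P450 panel assay, CYP1A2 panel member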
# T5 sequence (P05177 whole entry): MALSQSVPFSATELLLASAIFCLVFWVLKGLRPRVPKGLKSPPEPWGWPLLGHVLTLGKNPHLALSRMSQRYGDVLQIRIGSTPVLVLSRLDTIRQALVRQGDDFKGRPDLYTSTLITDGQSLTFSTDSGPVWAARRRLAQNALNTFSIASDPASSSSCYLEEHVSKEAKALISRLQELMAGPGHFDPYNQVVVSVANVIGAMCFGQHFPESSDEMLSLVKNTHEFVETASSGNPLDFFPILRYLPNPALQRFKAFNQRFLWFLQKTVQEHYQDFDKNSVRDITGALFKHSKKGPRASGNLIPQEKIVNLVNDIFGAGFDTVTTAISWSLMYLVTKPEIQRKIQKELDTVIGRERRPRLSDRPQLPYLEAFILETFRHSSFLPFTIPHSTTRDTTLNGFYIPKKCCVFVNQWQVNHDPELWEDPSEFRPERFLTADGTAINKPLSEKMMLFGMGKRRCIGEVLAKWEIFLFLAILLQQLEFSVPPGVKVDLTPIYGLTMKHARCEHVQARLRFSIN
structure (smiles),measurement,setting,value
COc1cc(/C=C2/SC(=O)NC2=O)ccc1Oc1ccc([N+](=O)[O-])cc1[N+](=O)[O-],IC50,[1],7.36 µM (not active)
same,AC50,[2],0.992 µM (active)
same,AC50,[3],0.156 µM (active)
Nc1ccccc1-c1nnc(S)s1,EC50,[4],> 79.4 µM (not active)
same,EC50,[5],14.9 µM (inactive)
same,EC50,[6],15.6 µM (not active)
CCOC(=O)c1c(-c2ccccc2Cl)cn2ccccc12,EC50,[7],17.4 µM (active)
same,EC50,[8],3.75 µM (active)
same,EC50,[9],> 160 µM (inactive)
same,EC50,[10],> 180 µM (inactive)
Cc1ccccc1C(=O)c1c[nH]c(C(=O)NCc2ccco2)c1,AC50,HEK293,11.2 µM (active)
CCCCN1CCC(CCC(=O)c2cc(Cl)c(N)cc2OC)CC1,AC50,Cytochrome P450 2D6,12.6 µM (inconclusive)
same,AC50,Cytochrome P450 2C9,inconclusive
C[n+]1c2n(c3ccccc31)N=C(c1ccc(-c3ccccc3)cc1)CS2,IC50,[11],5.03 µM (active)
same,EC50,[7],> 160 µM (inactive)
same,EC50,[12],9.85 µM (active)
same,IC50,Protein Wnt-3a,0.736 µM (active)
same,AC50,INS1,1.32 µM (active)
same,EC50,[8],0.452 µM (active)
same,EC50,[13],0.376 µM (active)
same,EC50,[9],> 160 µM (inactive)
same,EC50,[10],> 180 µM (inactive)
COc1cc(/C=C/C(=O)N2CCC=CC2=O)cc(OC)c1OC [PIPLARTINE],AC50,Paired box protein Pax-8,2.69 µM (active)
same,AC50,Cytochrome P450 3A4,0.0501 µM (inconclusive)
same,AC50,[14],17.4 µM (active)
same,AC50,[15],7.4 µM (active)
COc1ccc(/C=C2/SC(=S)N(CCCC(=O)N3CCN(C)CC3)C2=O)cc1,CC50,Vero,> 25 µM (active)
O=C(CSc1nc2cc(Br)c[nH]c-2n1)c1cccc([N+](=O)[O-])c1,EC50,"Troponin, cardiac muscle",> 71.5 µM (inactive)
CCCN(CCC)CCc1c[nH]c2ccc(C(N)=O)cc12,AC50,Cytochrome P450 2C9,inconclusive
same,AC50,Cytochrome P450 1A2,15.8 µM (inconclusive)
